Three molecules from patent publication US9988680B2, “Non-natural nucleosides as theranostic agents” (Case Western Reserve University, priority 2011, dated 2018) can be followed below.

In brackets after ≈: the same amount, converted by molar mass.

Type in all cases: cell-based
Data set [1] deals with MOLT4 cells. The experiment in a line: Cell proliferation assay (trypan blue, viable vs non-viable cells), MOLT4. The conditions noted are these: for IC50 / LD50: MOLT4, up to 72 h. As for the experimental part: (§1) Cells were seeded at a population density of ˜200,000 cells mL-1 and treated with variable concentrations of non-natural nucleoside (0.1-100 μg mL-1) for up to 72 h. The final DMSO concentration in all experiments was 0.1%. Cell viability was assessed via trypan blue staining and counting the number of viable (clear) versus non-viable (blue) cells under a microscopy using a hemocytometer. The IC50 values for both nonnatural nucleosides were obtained using a nonlinear regression curve fit of the data to eq 3. LD50 values for the non-natural nucleosides were calculated using identical approaches.
This hypothesis was tested by measuring the cytostatic and/or cytotoxic effects of the corresponding nucleoside, 3-Eth-5-NIdR, and 5-nitroindolyl-2′-deoxynucleoside (5-NIdR) against various ALL cell lines including MOLT4, CEM-C7, Jurkat, RS4(11), JS45.01, and Loucy. Western blot analyses was first performed to determine TdT levels in each ALL cell line. […] We next tested the efficacy of 5-NIdR and 3-Eth-5-NIdR by treating exponentially growing cells with variable concentrations (0.1-100 μg mL^−1) of each non-natural nucleoside for time periods of up to 3 days.

For data set [2], the system named is Loucy cells. The experiment in a line: Cell proliferation assay (trypan blue), Loucy. As to conditions: for IC50 / LD50: Loucy (TdT-negative), up to 72 h. As for the experimental part:
as §1

The next data set has as its system CEM-C7 cells. The experiment in a line: Cell proliferation assay (trypan blue), CEM-C7. As to conditions: CEM-C7, up to 72 h. The protocol: as §1
(§2) Identical cell-based experiments were performed with the other ALL cell lines, and the corresponding IC50 and LD50 values for 5-NIdR and 3-Eth-5-NIdR against each cell line are summarized in Table 2. […] The increased potency of 3-Eth-5-NIdR likely reflects the higher catalytic efficiency for the corresponding nucleoside triphosphate to act as a chain-terminating substrate for TdT. […] In general, there is an excellent correlation (R^2=0.695, p<0.0001) between the anti-cancer effects of the non-natural nucleoside with TdT level. Similar analyses were performed by plotting the LD50 values of 3-Eth-5-NIdR as a function of TdT content (FIG. 3E).

The subject of a further data set is Jurkat cells. The experiment in a line: Cell proliferation assay (trypan blue), Jurkat. As to conditions: up to 72 h. The protocol:
as §1, §2

The test system of another data set is RS4(11) cells. As to the kind of experiment: Cell proliferation assay (trypan blue), RS4(11). As to conditions: up to 72 h. The protocol: as §1, §2
Another data set has as its system J45.01 cells. As to the kind of experiment: Cell proliferation assay (trypan blue), J45.01. The conditions noted are these: J45.01, up to 72 h. The protocol:
as §1, §2

The test system of data set [3] is MOLT4 cells. The experiment in a line: Apoptosis measurement (Annexin V-Alexa Fluor 488 / propidium iodide flow cytometry). The conditions noted are these: for PI uptake (necrotic cell death): MOLT4. The protocol: Cells were treated with DMSO (vehicle), 5-NIdR (100 μg mL-1), and 3-Eth-5-NIdR (10 and 40 μg mL-1) as described above. Cells were harvested by centrifugation and washed in phosphate-buffered saline and resuspended in 100 μL of binding buffer containing AnnexinV-Alexa Fluor 488 conjugate. Cells were treated with propidium iodide (PI) and incubated at RT for 15 min followed by flow cytometry analysis. This enables live cells (unstained with either Alexa Fluor 488 or PI) to be discriminated from early apoptotic (stained with Alexa Fluor 488), late apoptotic cells (stained with Alexa Fluor 488 and PI), and necrotic cells (stained with PI).
The mechanism by which these non-natural nucleosides induce cell death was interrogated using dual parameter FACS analyses measuring propidium iodide uptake and Alexa Fluor488 annexin V conjugate staining. This allows live cells (unstained with either fluorophore) to be distinguished from cells that are early apoptotic (annexin V staining only), late apoptotic (propidium iodide and annexin V staining), and necrotic (propidium iodide staining only). […] In this case, treatment with 100 μg mL^−1 5-NIdR causes a 5-fold increase in early and late stage apoptosis, respectively. […] The induction of apoptosis was also independently confirmed by using agarose gel electrophoresis to observe DNA cleavage sites between nucleosomes that occur in chromatin at ˜200-base pair intervals.
(In general: In flow cytometry, cells or beads pass a laser one at a time.)

Data set [4] deals with MOLT4 cells. As to the kind of experiment: In situ click reaction with AlexaFluor488-azide, flow cytometry, MOLT4. As for the experimental part:
(§3) In situ “click” reactions were performed using cells harvested after 2 days of treatment with DMSO, 3-Eth-5-NIdR (10, 40, or 100 μg mL^−1), 5-NIdR (100 μg mL^−1) or 5-ethynyl-2′-deoxyuridine (EdU) (10 μM). All cells were fixed with cold methanol. Under minimal lighting, cells were treated with 0.3 mL of saponin-based permeabilization and wash buffer for 45 min at 37° C. Click reactions were initiated by adding the click-iT reaction cocktail according to the instructions of the manufacturer (Invitrogen) followed by incubation at 37° C. for 90 min. Cells were then washed two times with saponin-based permeabilization and wash buffer. Cell pellets were dislodged using 0.5 mL solution of 10 μg mL^−1 PI and RNAase A in saponin-based permeabilization and wash buffer and then incubated for at least 15 min prior to flow cytometry analysis.
MOLT4 cells were treated with DMSO, EdU (a “clickable” thymidine analogue), 5-NIdR, and 3-Eth-5-NIdR for 2 days and then washed with PBS to remove any nucleoside and/or nucleotide not incorporated into DNA. After fixation and permeabilization, the cells were treated with AlexaFluor488-azide and Cu(I) catalyst to commence “clicking” of any incorporated nonnatural nucleotide. Dual parameter flow cytometry applying PI staining coupled with detection of the AlexaFluor488 fluorophore was used to detect the “clicked” non-natural nucleotide in cellular DNA. […] This high amount of “clicked” DNA reflects transport of EdU into the cell, conversion to the corresponding nucleoside triphosphate, and incorporation into the DNA of replicating cells. MOLT4 cells treated with 10 μg mL^−1 3-Eth-5-NIdR also show appreciable levels of AlexaFluor488 stained DNA (2.8%) after 2 days of treatment. Furthermore, the amount of “clicked” DNA is dosedependent as treatment with 40 μg mL^−1 Eth-5-NIdR yields a […] increase in AlexaFluor488 staining (6.5%). Identical experiments were performed using the Loucy cell line that lacks TdT and thus is less sensitive to the cytotoxic effects of the non-natural nucleoside (vide inf ra). […] Treatment with 40 μg mL^−1 of 3-Eth-5-NIdR produces low levels of “clicked” DNA (0.02%). […] Once incorporated into DNA, the non-natural nucleotide inhibits cellular DNA replication and induces apoptosis. Finally, it should be emphasized that low levels (<0.5%) of AlexaFluor488 staining are detected in cells treated with 100 μg mL^−1 5-NIdR.

In data set [5] the test system is Loucy cells. As to the kind of experiment: In situ click reaction with AlexaFluor488-azide, flow cytometry, Loucy. The protocol: as §3
MOLT4 cells were treated with DMSO, EdU (a “clickable” thymidine analogue), 5-NIdR, and 3-Eth-5-NIdR for 2 days and then washed with PBS to remove any nucleoside and/or nucleotide not incorporated into DNA. After fixation and permeabilization, the cells were treated with AlexaFluor488-azide and Cu(I) catalyst to commence “clicking” of any incorporated nonnatural nucleotide. […] Finally, it should be emphasized that low levels (<0.5%) of AlexaFluor488 staining are detected in cells treated with 100 μg mL^−1 5-NIdR.

[6] abbreviates: MOLT4, 40 μg mL^−1, compared to DMSO.
Where [7] appears, read: MOLT4, 100 μg mL^−1, 2 days post-treatment.
Setting [8] is: MOLT4, 100 μg mL^−1, compared to DMSO.

A word on the IC50: it is the concentration needed to halve the response being measured. Low values mean greater potency in that assay, high ones weaker potency in that assay. Consider `C#Cc1cn([C@H]2C[C@H](O)[C@@H](CO)O2)c2ccc([N+](=O)[O-])cc12` [3-Eth-5-NIdR, 3-ethynyl-5-nitroindolyl-2′-deoxynucleoside], for which the “cytostatic and cytotoxic effects” value with MOLT4 cells [1] (MOLT4, 10 μg mL^−1) is “cytostatic and cytotoxic effects are observed”. In addition, the IC50 in the data set on MOLT4 cells [1] was 14.1 ± 2.4 µg/mL (≈ 46.6 µM); in the data set with MOLT4 cells [1] (listed as 3-Eth-5-NIdr) it was 14 ± 2 µg/mL (≈ 46.3 µM); in the data set on Loucy cells [2], 62 ± 5 µg/mL (≈ 205 µM); in the data set with CEM-C7 cells, 23 ± 2 µg/mL (≈ 76.1 µM); in the data set on Jurkat cells, 49 ± 1 µg/mL (≈ 162 µM); in the data set on RS4(11) cells it was 23 ± 2 µg/mL (≈ 76.1 µM). In the data set with J45.01 cells, this molecule gave an IC50 of 34 ± 6 µg/mL (≈ 112 µM). Moreover, the LD50 in the data set on MOLT4 cells [1] was 27.7 ± 1.7 µg/mL; in the data set with MOLT4 cells [1] (listed as 3-Eth-5-NIdr), 28 ± 4 µg/mL; in the data set with Loucy cells [2], 63 ± 3 µg/mL; in the data set with CEM-C7 cells, about 100 µg/mL; with Jurkat cells it was about 100 µg/mL; in the data set on RS4(11) cells, 57 ± 2 µg/mL. The molecule also returned an LD50 in the data set with J45.01 cells of 71 ± 6 µg/mL. In addition, the “cytostatic or cytotoxic effects” value in the data set with Loucy cells [2] (Loucy, 40 μg mL^−1) was “significant cytostatic or cytotoxic effects are not observed”. In addition, the “PI uptake (necrotic cell death)” value in the data set on MOLT4 cells [3] is “no significant PI uptake”. The “Early apoptoic cells (%)” value with MOLT4 cells [3] (MOLT4, 10 μg mL^−1) amounted to 10.5 ± 1.5%; in the data set on MOLT4 cells [3] (MOLT4, 40 μg mL^−1) it was 68.8 ± 0.9%. The “Late apoptoic cells (%)” value with MOLT4 cells [3] (MOLT4, 10 μg mL^−1) is on record as 5.4 ± 1.0%; with MOLT4 cells [3] (MOLT4, 40 μg mL^−1) it was 23.7 ± 4.9%. The “Necrotic cells (%)” value in the data set with MOLT4 cells [3] (MOLT4, 10 μg mL^−1) was determined as 0.7 ± 0.2%; in the data set with MOLT4 cells [3] (MOLT4, 40 μg mL^−1), 1.2 ± 0.2%. The “Viable cells (%)” value in the data set on MOLT4 cells [3] (MOLT4, 10 μg mL^−1) amounted to 83.4 ± 2.7%; in the data set on MOLT4 cells [3] (MOLT4, 40 μg mL^−1) it was 6.3 ± 3.7%. In the data set on MOLT4 cells [3] (MOLT4, 10 μg mL^−1), the “level of apoptosis compared with 100 μg mL^−1 5-NIdR” value is reported as “equivalent levels of apoptosis”. Moreover, in the data set on MOLT4 cells [3] (setting [6]), the “increase in early stage apoptosis” value is 13 fold. The “increase in late stage apoptosis” value in the data set with MOLT4 cells [3] (setting [6]) came to 7 fold. Also, the “AlexaFluor488 stained (clicked) DNA” value in the data set with MOLT4 cells [4] (MOLT4, 10 μg mL^−1, 2 days) is on record as 2.8%. Further, in the data set with MOLT4 cells [4] (MOLT4, 40 μg mL^−1, 2 days), the “AlexaFluor488 staining (clicked DNA)” value was found to be 6.5%. In addition, the “increase in AlexaFluor488 staining” value in the data set on MOLT4 cells [4] (MOLT4, 40 vs 10 μg mL^−1) came to 2.5 fold. Also, the “clicked DNA (AlexaFluor488 staining)” value in the data set on Loucy cells [5] (40 μg mL^−1, 2 days) amounted to 0.02%.
In the case of `O=[N+]([O-])c1ccc2c(ccn2[C@H]2C[C@H](O)[C@@H](CO)O2)c1` [5-NIdR, 5-nitroindolyl-2′-deoxynucleoside, reference compound], the “increase in the number of non-viable cells” value with MOLT4 cells [1] (setting [7]) is recorded as 2.5 fold; in the data set on Loucy cells [2] (Loucy, 100 μg mL^−1), “does not cause a substantial increase”. For the same molecule, the “reduction in the number of viable cells” value in the data set with MOLT4 cells [1] (setting [7]) is about 5 fold; in the data set on Loucy cells [2] (Loucy, 100 μg mL^−1), under 25%. In addition, the IC50 in the data set with MOLT4 cells [1] is 34 ± 6 µg/mL (≈ 122 µM); in the data set with Loucy cells [2], >>100 μg mL^−1; in the data set with CEM-C7 cells it was about 100 µg/mL (≈ 359 µM); with Jurkat cells, about 100 µg/mL (≈ 359 µM); in the data set on RS4(11) cells, over 100 µg/mL; in the data set on J45.01 cells it was about 100 µg/mL (≈ 359 µM). The LD50 in the data set on MOLT4 cells [1] is about 100 µg/mL; with Loucy cells [2], >>100 μg mL^−1; in the data set with CEM-C7 cells it was >>100 μg mL^−1; in the data set with Jurkat cells, >>100 μg mL^−1; in the data set with RS4(11) cells it was >>100 μg mL^−1; with J45.01 cells it was >>100 μg mL^−1. Moreover, in the data set with MOLT4 cells [3], the “PI uptake (necrotic cell death)” value was “no significant PI uptake”. In addition, in the data set with MOLT4 cells [3] (MOLT4, 100 μg mL^−1), the “Early apoptoic cells (%)” value stood at 26.5 ± 3.7%. Further, the “Late apoptoic cells (%)” value in the data set with MOLT4 cells [3] (MOLT4, 100 μg mL^−1) is reported as 18.9 ± 3.4%. Moreover, the “Necrotic cells (%)” value with MOLT4 cells [3] (MOLT4, 100 μg mL^−1) was determined as 1.5 ± 0.5%. Also, the “Viable cells (%)” value with MOLT4 cells [3] (MOLT4, 100 μg mL^−1) worked out at 53.1 ± 6.7%. In the data set on MOLT4 cells [3] (setting [8]), the “increase in early stage apoptosis” value is 5 fold. Besides, the “increase in late stage apoptosis” value in the data set with MOLT4 cells [3] (setting [8]) came out at 5 fold. The molecule also registered an AlexaFluor488 staining in the data set with MOLT4 cells [4] (100 μg mL^−1, 2 days, cell line not given) of under 0.5%.
`C#Cc1cn([C@H]2C[C@H](O)[C@@H](CO)O2)c(=O)[nH]c1=O` [EdU, 5-ethynyl-2′-deoxyuridine, reference compound]: the “AlexaFluor488 stained (clicked) DNA” value with MOLT4 cells [4] (MOLT4, 10 μM, 2 days) is on record as 36.1%. In the data set with Loucy cells [5] (10 μM, 2 days), the “AlexaFluor488 staining (clicked DNA)” value was 59.2%.
